compound: CC(C)(C)c1cc(NC(=O)Nc2ccc(-c3cn4c(n3)sc3cc(OCCN5CCOCC5)ccc34)cc2)no1 [Quizartinib] + CS(=O)(=O)N1CCN(Cc2cc3nc(-c4cccc5[nH]ncc45)nc(N4CCOCC4)c3s2)CC1 [Pictilisib] (partner 1 µM); experiment: relative viability (nuclei count vs DMSO), 5 days (fraction); higher = more cells survive; conditions: first compound 0.1 µM
Procedure, shortened: (§1)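 Relative viability divides the nuclei count in treated wells by that in vehicle wells. Lung cancer cell lines were seeded in 1536-well plates, dosed by pin tool the next day, and fixed and stained after 5 days in one step with final 0.05% Triton X-100, 1% formaldehyde and 1 ug/ml Hoechst. Dosing was a single drug or a fixed anchor-drug dose plus five library-drug doses (not always all listed) in √10 steps, and values are medians of duplicate plates imaged at 4×.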

Compared with IA-LM, NCI-H2170 is lower in relative viability: 0.342 for the first, 0.321 for the second.

Going from NCI-H661 to NCI-H358, the relative viability falls from 0.467 to 0.315.

Going from CAL-12T to LK-2, the relative viability rises from 0.547 to 0.55.

Compared with HOP-62, PC-14 is lower in relative viability: 0.835 for the first, 0.681 for the second.

First: NCI-H1993
Second: NCI-H2405
The relative viability of the first is higher: 0.808 for the first, 0.503 for the second.

First: A549
Second: NCI-H3122
The relative viability of the first is higher: 0.614 for the first, 0.58 for the second.

First: A-427
Second: LOU-NH91
The relative viability of the first is higher: 0.668 for the first, 0.545 for the second.

First: NCI-H596
Second: NCI-H1666
The relative viability of the first is higher: 0.416 for the first, 0.264 for the second.

Going from NCI-H23 to NCI-H838, the relative viability falls from 0.441 to 0.377.

With NCI-H322M the relative viability was 0.537.

compound: COCC[n+]1c2c(n(Cc3cnccn3)c1C)C(=O)c1ccccc1C2=O [YM155] + CS(=O)(=O)CCNCc1ccc(-c2ccc3ncnc(Nc4ccc(OCc5cccc(F)c5)c(Cl)c4)c3c2)o1 [Lapatinib] (partner 2 µM); experiment: as above; conditions: first compound 0.002 µM
Procedure, shortened: as §1

Going from NCI-H2009 to HCC-366, the relative viability rises from 0.888 to 1.07.

First: EBC-1
Second: NCI-H1915
The relative viability of the first is lower: 0.229 for the first, 0.968 for the second.

Compared with NCI-H2347, ABC-1 is higher in relative viability: 0.917 for the first, 1.13 for the second.

Going from NCI-H1734 to HCC-78, the relative viability falls from 1.09 to 0.672.

Going from COR-L 105 to HCC-15, the relative viability rises from 0.33 to 0.802.

Compared with HARA, NCI-H1975 is higher in relative viability: 0.623 for the first, 0.701 for the second.

First: NCI-H1944
Second: NCI-H2126
The relative viability of the first is higher: 0.842 for the first, 0.768 for the second.

First: EMC-BAC-2
Second: SK-LU-1
The relative viability of the first is lower: 0.795 for the first, 0.835 for the second.

Compared with IA-LM, NCI-H2170 is lower in relative viability: 0.781 for the first, 0.261 for the second.

Going from NCI-H661 to NCI-H358, the relative viability falls from 0.522 to 0.326.

First: LK-2
Second: HOP-62
The relative viability of the first is higher: 0.893 for the first, 0.831 for the second.

Going from PC-14 to NCI-H1993, the relative viability rises from 0.306 to 0.81.

Going from NCI-H2405 to A549, the relative viability falls from 1.03 to 0.93.

NCI-H3122 and A-427 are the same in relative viability: 1 for the first, 1 for the second.

Compared with LOU-NH91, NCI-H1666 is lower in relative viability: 0.828 for the first, 0.629 for the second.

Compared with NCI-H23, NCI-H838 is higher in relative viability: 0.877 for the first, 0.92 for the second.

NCI-H322M was tested, and the relative viability was 0.601.

same assay, conditions: first compound 0.006325 µM

Going from NCI-H2009 to HCC-366, the relative viability rises from 0.893 to 0.986.

First: EBC-1
Second: NCI-H1915
The relative viability of the first is lower: 0.203 for the first, 0.946 for the second.

First: NCI-H2347
Second: NCI-H1734
The relative viability of the first is lower: 0.914 for the first, 1.08 for the second.

Going from HCC-78 to COR-L 105, the relative viability falls from 0.806 to 0.353.

Going from HCC-15 to HARA, the relative viability falls from 0.911 to 0.862.

Going from NCI-H1975 to NCI-H1944, the relative viability falls from 0.774 to 0.724.

First: NCI-H2126
Second: EMC-BAC-2
The relative viability of the first is lower: 0.788 for the first, 0.899 for the second.

Compared with SK-LU-1, IA-LM is lower in relative viability: 0.85 for the first, 0.741 for the second.

First: NCI-H2170
Second: NCI-H661
The relative viability of the first is lower: 0.261 for the first, 0.575 for the second.

Going from NCI-H358 to CAL-12T, the relative viability rises from 0.447 to 0.768.

Compared with LK-2, HOP-62 is higher in relative viability: 0.966 for the first, 1.02 for the second.

First: PC-14
Second: NCI-H1993
The relative viability of the first is lower: 0.295 for the first, 0.736 for the second.

Going from NCI-H2405 to A549, the relative viability rises from 0.816 to 0.872.

Compared with NCI-H3122, A-427 is lower in relative viability: 0.997 for the first, 0.994 for the second.

First: LOU-NH91
Second: NCI-H596
The relative viability of the first is lower: 0.778 for the first, 1.11 for the second.

Compared with NCI-H23, NCI-H838 is lower in relative viability: 1.09 for the first, 1.01 for the second.

In the case of NCI-H322M, the relative viability is reported as 0.628.

same assay, conditions: first compound 0.02 µM

Compared with NCI-H2009, HCC-366 is higher in relative viability: 0.946 for the first, 1.01 for the second.

First: EBC-1
Second: NCI-H1915
The relative viability of the first is lower: 0.208 for the first, 0.918 for the second.

Compared with NCI-H2347, ABC-1 is higher in relative viability: 0.997 for the first, 1.18 for the second.

Going from NCI-H1734 to HCC-78, the relative viability falls from 1.13 to 0.968.

Compared with COR-L 105, HCC-15 is higher in relative viability: 0.337 for the first, 0.868 for the second.

Compared with HARA, NCI-H1975 is higher in relative viability: 0.701 for the first, 0.856 for the second.

Compared with NCI-H1944, NCI-H2126 is lower in relative viability: 0.767 for the first, 0.726 for the second.

Going from EMC-BAC-2 to SK-LU-1, the relative viability rises from 0.874 to 0.971.

Going from IA-LM to NCI-H2170, the relative viability falls from 0.652 to 0.291.

Going from NCI-H661 to NCI-H358, the relative viability falls from 0.575 to 0.344.

Going from CAL-12T to LK-2, the relative viability rises from 0.61 to 0.94.

Compared with HOP-62, PC-14 is lower in relative viability: 0.973 for the first, 0.297 for the second.

Going from NCI-H1993 to NCI-H2405, the relative viability rises from 0.682 to 0.786.

First: A549
Second: NCI-H3122
The relative viability of the first is lower: 0.598 for the first, 1.01 for the second.

Compared with A-427, LOU-NH91 is lower in relative viability: 1.07 for the first, 0.778 for the second.

Compared with NCI-H596, NCI-H1666 is lower in relative viability: 1.09 for the first, 0.77 for the second.

First: NCI-H23
Second: NCI-H838
The relative viability of the first is lower: 0.736 for the first, 1.03 for the second.

NCI-H322M gave a relative viability of 0.509.

same assay, conditions: first compound 0.06325 µM

First: NCI-H2009
Second: HCC-366
The relative viability of the first is lower: 0.119 for the first, 0.625 for the second.

First: EBC-1
Second: NCI-H1915
The relative viability of the first is lower: 0.196 for the first, 0.784 for the second.

Compared with NCI-H2347, ABC-1 is lower in relative viability: 0.598 for the first, 0.518 for the second.

Compared with NCI-H1734, HCC-78 is lower in relative viability: 0.969 for the first, 0.833 for the second.

Going from COR-L 105 to HCC-15, the relative viability rises from 0.368 to 0.69.

Going from HARA to NCI-H1975, the relative viability falls from 0.959 to 0.175.

First: NCI-H1944
Second: NCI-H2126
The relative viability of the first is higher: 0.82 for the first, 0.783 for the second.

First: EMC-BAC-2
Second: SK-LU-1
The relative viability of the first is higher: 0.817 for the first, 0.653 for the second.

Going from IA-LM to NCI-H2170, the relative viability falls from 0.283 to 0.235.

Going from NCI-H661 to NCI-H358, the relative viability falls from 0.421 to 0.199.

Compared with CAL-12T, LK-2 is higher in relative viability: 0.588 for the first, 0.885 for the second.

Compared with HOP-62, PC-14 is lower in relative viability: 0.961 for the first, 0.355 for the second.

Going from NCI-H1993 to NCI-H2405, the relative viability falls from 0.757 to 0.34.

Going from A549 to NCI-H3122, the relative viability rises from 0.0781 to 1.08.

First: A-427
Second: LOU-NH91
The relative viability of the first is higher: 0.987 for the first, 0.788 for the second.

Compared with NCI-H596, NCI-H1666 is lower in relative viability: 1.06 for the first, 0.562 for the second.

First: NCI-H23
Second: NCI-H838
The relative viability of the first is lower: 0.313 for the first, 0.353 for the second.

With NCI-H322M the relative viability was 0.585.

Source: the supplement of paper PMC10307832
